Common to all, as to assay: Cancer cell growth, Cell Titer-Glo cell viability assay, 72 hours
Format in all cases: cell-based
For orientation: In ATP-based viability assays light output follows the ATP content of the culture.

Test [1] has as its system acute B cell leukemia cell line MEC-1. To be noted: Homo sapiens, MEC1; MEC-1, 72 hours. From the text:
(§1) In the examples, we used acute myelocytic leukemia (AML) OCI-AML-3, acute promyelocytic leukemia cell line NB-4, MDS-RAEB (myelodysplastic syndrome-excess blasts type) cell line SKM-1, human leukemia cell Nomo-1, acute myeloid leukemia cell line MOLM14, acute myeloid leukemia cell line MOLM13, acute myeloid leukemia cell line MV4-11, acute myeloid leukemia cell line HL-60, acute myeloid leukemia cell line OCI-AML-2, histiocytic lymphoma U-937, acute B cell leukemia cell line MEC-1, acute B cell leukemia cell line MEC-2, acute megakaryoblastic leukemia CMK, hamster lung cell CHL, hamster ovary cell CHO, human non-small cell lung cancer cell H1975, human non-small cell lung cancer cell H358, human small cell lung cancer cell H209, human lung adenocarcinoma cell H1395, human non-small cell lung cancer cell PC-9, human lung cancer cell H3122, human non-small cell lung cancer cell H2122, human non-small cell lung cancer cell H1915, human lung adenocarcinoma cell H1355, human non-small cell lung cancer cell HCC827, human breast cancer cell MDA-MB-231, human breast cancer cell MDA-MB-468, human breast cancer cell MCF-7, human breast cancer cell T47D, human breast cancer cell SK-Br-3, the above cells were purchased from ATCC.
(§2) Cell Titer-Glo® (Promega, USA) chemical self-luminescence cell viability assay kit was used to detect the number of viable cells by quantitatively measuring ATP in living cells, according to which to calculate GI50 and IC50.

Test [2] relates to histiocytic lymphoma U-937. The settings on record: Homo sapiens; U-937, 72 hours.
Excerpt: as §1, §2

Test [3] deals with acute myeloid leukemia cell line MOLM13. To be noted: Homo sapiens; MOLM-13, 72 hours.
Excerpt: as §1, §2

Test [4] deals with human leukemia cell Nomo-1. The settings on record: Homo sapiens; Nomo-1, 72 hours.
Excerpt: as §1, §2

For test [5], the system named is acute myeloid leukemia cell line OCI-AML-2. To be noted: Homo sapiens; OCI-AML2, 72 hours.
Excerpt: as §1, §2

Test [6] relates to acute myeloid leukemia cell line MV4-11. To be noted: Homo sapiens; MV4-11, 72 hours.
Excerpt: as §1, §2

Test [7] deals with acute myelocytic leukemia (AML) OCI-AML-3. The settings on record: Homo sapiens, OCI-AML-3; OCI-AML3, 72 hours.
Excerpt: as §1, §2

The test system of test [8] is acute B cell leukemia cell line MEC-2. The settings on record: MEC2; MEC-2, 72 hours.
Excerpt: as §1, §2

The subject of test [9] is hamster lung cell CHL. The settings on record: CHL, 72 hours.
Excerpt: as §1, §2

The subject of test [10] is MDS-RAEB (myelodysplastic syndrome-excess blasts type) cell line SKM-1. The settings on record: Homo sapiens; SKM-1, 72 hours.
Excerpt: as §1, §2

The test system of test [11] is acute myeloid leukemia cell line MOLM14. The settings on record: Homo sapiens; MOLM-14, 72 hours.
Excerpt: as §1, §2

The subject of test [12] is hamster ovary cell CHO. To be noted: CHO, 72 hours.
Excerpt: as §1, §2

Test [13] has as its system acute myeloid leukemia cell line HL-60. The settings on record: Homo sapiens; HL-60, 72 hours.
Excerpt: as §1, §2

The test system of test [14] is acute megakaryoblastic leukemia CMK.
Excerpt: as §1, §2

Test [15] relates to acute promyelocytic leukemia cell line NB-4. To be noted: NB4, 72 hours.
Excerpt: as §1, §2

As usually defined, the GI50 is the concentration at which growth is held to half of that of the control. High values mean less potent growth inhibition, low ones more potent growth inhibition. `N[C@H]1CC[C@H](Nc2cc(-c3csc(NCC4CCOCC4)n3)c(Cl)cn2)CC1` [Compound 2, (1r,4r)-N^1-(5-chloro-4-(2-(((tetrahydro-2H-pyran-4-yl)methyl)amino)thiazol-4-yl)pyridin-2-yl)cyclohexane-1,4-diamine]: the GI50 in [1] stood at 270 nM; in test [2] it was 120 nM; in [3], 150 nM; in test [4] it was 590 nM; in [5] it was 9100 nM; in [6] it was 140 nM. For the same compound, the 50% growth inhibitory concentration (GI50) in test [7] worked out at 140 nM; in test [8] it was 140 nM; in [9], 3500 nM; in test [10] it was 85 nM; in test [11], 140 nM; in test [12] it was 2800 nM. The figures for the GI50 in test [13], in test [14] and in test [15] were 550 nM, 370 nM and 56 nM, respectively.

Consider `COC[C@H](C)N[C@H]1CC[C@H](Nc2cc(-c3csc(NCC4CCOCC4)n3)c(Cl)cn2)CC1` [Compound 5, (1S,4r)-N^1-(5-chloro-4-(2-(((tetrahydro-2H-pyran-4-yl)methyl)amino)thiazol-4-yl)pyridin-2-yl)-N^4-((S)-1-methoxypropan-2-yl)cyclohexane-1,4-diamine], for which the 50% growth inhibitory concentration (GI50) amounted to 1300 nM in test [1]; 430 nM in test [2]; 640 nM in test [3]; 1000 nM in test [4]; 470 nM in [5]; 440 nM in [6]. Besides, the concentration for 50% growth inhibition (GI50) in [7] turned out to be 820 nM; in test [8], 770 nM; in test [9] it was 3600 nM; in test [10], 350 nM; in test [11], 490 nM; in test [12], 1200 nM. For the same compound, the GI50 in [13] was found to be 390 nM; in [14] it was 1500 nM; in [15] it was 460 nM.

Consider `COC[C@@H](C)N[C@H]1CC[C@H](Nc2cc(-c3csc(NCC4CCOCC4)n3)c(Cl)cn2)CC1` [Compound 6, (1R,4r)-N^1-(5-chloro-4-(2-(((tetrahydro-2H-pyran-4-yl)methyl)amino)thiazol-4-yl)pyridin-2-yl)-N^4-((R)-1-methoxypropan-2-yl)cyclohexane-1,4-diamine], for which the GI50 is 310 nM in test [1]; 110 nM in test [2]; 130 nM in test [3]; 290 nM in test [4]; 120 nM in test [5]; 140 nM in test [6]. Further, the concentration for 50% growth inhibition (GI50) in test [7] came to 150 nM; in [8], 130 nM; in [9], 1100 nM; in test [10], 97 nM; in test [11], 110 nM; in test [12], 400 nM. Besides, the 50% growth inhibitory concentration (GI50) was 65 nM in test [13], 350 nM in test [14] and 110 nM in test [15].

For `O=C(Nc1cc(-c2csc(NCC3CCOCC3)n2)c(Cl)cn1)c1ccc(F)cc1` [Compound 8, N-(5-chloro-4-(2-(((tetrahydro-2H-pyran-4-yl)methyl)amino)thiazol-4-yl)pyridin-2-yl)-4-fluorobenzamide], the concentration for 50% growth inhibition (GI50) turned out to be 3600 nM in test [1]; 1400 nM in [2]; 200 nM in test [3]; 1000 nM in test [4]; 2900 nM in [5]; 550 nM in test [6]. The 50% growth inhibitory concentration (GI50) came out at 720 nM in test [7]; 830 nM in [8]; 930 nM in [9]; 150 nM in [10]; 530 nM in test [11]; 1600 nM in [12]. Besides, the results for the GI50 in [13], in [14] and in test [15] were 310 nM, 150 nM and 220 nM, respectively.

Regarding `CNc1nc(-c2cc(N[C@H]3CC[C@H](NCCOC)CC3)ncc2Cl)cs1` [Compound 9, (1r,4r)-N^1-(5-chloro-4-(2-(methylamino)thiazol-4-yl)pyridin-2-yl)-N^4-(2-methoxyethyl)cyclohexane-1,4-diamine], the GI50 was 1400 nM in test [1]; 850 nM in test [2]; 1000 nM in test [3]; 1300 nM in test [4]; 650 nM in test [5]; 530 nM in test [6]. Also, the GI50 in [7] turned out to be 1100 nM; in test [8] it was 1100 nM; in [9] it was 1900 nM; in [10], 750 nM; in test [11], 680 nM; in test [12], 1200 nM. Further, the concentration for 50% growth inhibition (GI50) worked out at 420 nM in test [13], 1800 nM in test [14] and 700 nM in test [15].

With `COCCN[C@H]1CC[C@H](Nc2cc(-c3csc(NCC4CCCCC4)n3)c(Cl)cn2)CC1` [Compound 10, (1r,4r)-N^1-(5-chloro-4-(2-((cyclohexylmethyl)amino)thiazol-4-yl)pyridin-2-yl)-N^4-(2-methoxyethyl)cyclohexane-1,4-diamine], the concentration for 50% growth inhibition (GI50) was found to be 850 nM in [1]; 340 nM in [2]; 820 nM in test [3]; 600 nM in [4]; 600 nM in test [5]; 1100 nM in [6]. For the same compound, the GI50 in test [7] was determined as 560 nM; in test [8], 660 nM; in test [9] it was 8000 nM; in test [10] it was 330 nM; in test [11], 330 nM; in test [12], 780 nM. Besides, the 50% growth inhibitory concentration (GI50) in test [13] came to 410 nM; in [14], 980 nM; in [15], 490 nM.

On to `COCCN[C@H]1CC[C@H](Nc2cc(-c3csc(NCc4ccccc4)n3)c(Cl)cn2)CC1` [Compound 11, (1r,4r)-N^1-(4-(2-(benzylamino)thiazol-4-yl)-5-chloropyridin-2-yl)-N^4-(2-methoxyethyl)cyclohexane-1,4-diamine], for which the GI50 came out at 470 nM in test [1]; 220 nM in test [2]; 280 nM in test [3]; 960 nM in test [4]; 330 nM in [5]; 330 nM in test [6]. Further, the GI50 in [7] amounted to 220 nM; in test [8] it was 320 nM; in [9], 1000 nM; in test [10], 170 nM; in test [11] it was 160 nM; in test [12], 370 nM. Besides, the GI50 in [13] was found to be 73 nM; in test [14], 470 nM; in test [15], 270 nM.

With `COCCN[C@H]1CC[C@H](Nc2cc(-c3csc(NCc4ccc(F)cc4)n3)c(Cl)cn2)CC1` [Compound 12, (1r,4r)-N^1-(5-chloro-4-(2-((4-fluorobenzyl)amino)thiazol-4-yl)pyridin-2-yl)-N^4-(2-methoxyethyl)cyclohexane-1,4-diamine], the GI50 in test [1] came to 450 nM; in [2], 390 nM; in test [3] it was 290 nM; in [4], 920 nM; in [5] it was 410 nM; in test [6], 880 nM. The GI50 in test [7] came out at 390 nM; in test [8] it was 480 nM; in test [9] it was 1100 nM; in test [10] it was 200 nM; in [11] it was 310 nM; in [12], 470 nM. The GI50 in test [13] amounted to 190 nM; in test [14], 720 nM; in test [15], 410 nM.

On to `COCCN[C@H]1CC[C@H](Nc2cc(-c3csc(NCC4CC4)n3)c(Cl)cn2)CC1` [Compound 13, (1r,4r)-N^1-(5-chloro-4-(2-((cyclopropylmethyl)amino)thiazol-4-yl)pyridin-2-yl)-N^4-(2-methoxyethyl)cyclohexane-1,4-diamine], for which the GI50 in [1] is 890 nM; in [2], 320 nM; in test [3] it was 440 nM; in test [4], 870 nM; in test [5] it was 600 nM; in [6], 740 nM. Also, the 50% growth inhibitory concentration (GI50) in [7] turned out to be 420 nM; in test [8] it was 660 nM; in [9], 1400 nM; in test [10], 260 nM; in [11], 330 nM; in test [12], 770 nM. In addition, the concentration for 50% growth inhibition (GI50) stood at 320 nM in test [13], 1100 nM in test [14] and 340 nM in [15].
